One data set concerns the target T1, human TOP3B (Homo sapiens, UniProt O95985).
T1 construct: GST (N); 6xHis (C); purchased Genscript (custom production); host or cells: sf9 insect cells (TOP3B); E. coli Rosetta(DE3) (TDRD3, made in house)
T1 sequence (O95985 1-862): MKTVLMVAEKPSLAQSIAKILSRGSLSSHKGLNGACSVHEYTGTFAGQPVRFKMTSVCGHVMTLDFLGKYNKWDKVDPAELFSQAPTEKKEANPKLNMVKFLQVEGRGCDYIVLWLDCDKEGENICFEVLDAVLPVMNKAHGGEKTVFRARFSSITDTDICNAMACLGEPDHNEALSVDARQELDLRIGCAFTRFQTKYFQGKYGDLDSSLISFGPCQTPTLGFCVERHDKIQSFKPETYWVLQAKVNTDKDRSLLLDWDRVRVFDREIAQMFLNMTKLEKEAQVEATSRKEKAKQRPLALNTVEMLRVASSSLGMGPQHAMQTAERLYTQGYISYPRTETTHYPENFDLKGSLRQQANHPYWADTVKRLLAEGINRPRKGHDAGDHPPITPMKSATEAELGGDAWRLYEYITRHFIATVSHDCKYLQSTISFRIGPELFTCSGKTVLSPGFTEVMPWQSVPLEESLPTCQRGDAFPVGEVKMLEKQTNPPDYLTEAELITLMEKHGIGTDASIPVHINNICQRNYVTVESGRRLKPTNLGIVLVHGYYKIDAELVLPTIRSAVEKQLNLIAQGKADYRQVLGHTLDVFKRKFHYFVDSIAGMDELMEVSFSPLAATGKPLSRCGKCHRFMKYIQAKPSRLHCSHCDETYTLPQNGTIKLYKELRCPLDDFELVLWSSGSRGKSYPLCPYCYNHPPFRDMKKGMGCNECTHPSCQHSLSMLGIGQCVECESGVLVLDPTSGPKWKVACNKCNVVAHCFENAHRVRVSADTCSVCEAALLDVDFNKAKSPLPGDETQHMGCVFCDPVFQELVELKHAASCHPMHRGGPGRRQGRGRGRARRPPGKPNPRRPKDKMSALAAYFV
The experiment in a line: Assay of inhibition of human TOP3B relaxation activity (chloroquine gel electrophoresis, TDRD3 present). It is filed as biochemical. As to conditions: for IC50: DNA relaxation, 18 nM TOP3B and TDRD3, supercoiled pBAD/Thio plasmid, 37 °C 1 h; for Inhibition of the DNA relaxation activity of human TOP3B: tested at up to 200 µM. The source says:
Human TOP3B protein was obtained through custom production by Genscript. The coding sequence of human TOP3B was custom synthesized by Genscript and cloned into vector pFastBacGST to generate the recombinant baculovirus expressing human TOP3B protein with the N-terminal GST tag and C-terminal 6xHis tag. Following expression in sf9 insect cells, the recombinant TOP3B protein was purified to >95% homogeneity by Genscript using GST column and superdex 200 16/600G chromatography. A buffer containing 20 mM of Tris-HCl (pH 7.5), 750 mM of KCl, 10% glycerol, 1 mM of EDTA, 0.05% NP-40, and 1mM of DTT was used for storage and dilution.
The presence of the TDRD3 protein enhances the relaxation activity of human TOP3B through the direct binding of the proposed TOP3B hinge region for gate opening and closing. The human TDRD3 coding sequence was amplified by PCR from the TDRD3 clone in pEGFP-C1 [45] using a forward primer of 5′-[…]-3′ and a reverse primer of 5′-[…]-3′. The amplified TDRD3 gene was joined with the backbone of the DHFR-His plasmid (from New England BioLab) using the NEB HiFi assembly kit with the forward primer 5′-[…]-3′ and the reverse primer 5′-[…]-3′ so that the TDRD3 gene replaced the DHFR gene. The his-tagged TDRD3 protein was expressed from the T7 promoter in E. coli Rosetta(DE3) cells and purified using the HisPur Ni-NTA spin column from Thermo Fisher according to the manufacturer’s protocol.
Inhibition of the relaxation activity of human TOP3B was carried out in a reaction buffer containing 20 mM of HEPES-KOH, with a pH of 7.5, 1 mM of DTT, 0.1 mg/mL of BSA, and 5 mM of MgCl2. TOP3B and TDRD3 were added at 18 nM to each reaction mix followed by 0.5 μL of DMSO or indicated concentrations of compounds, and lastly by the addition of 500 ng of supercoiled pBAD/Thio plasmid DNA (purified by CsCl gradient centrifugation) for a final reaction volume of 20 μL. After mixing by gentle vortex, the reaction mixtures were spun down and incubated at 37 °C for 1 h. The relaxation reactions were terminated by the addition of 1 μL of 10% SDS and 2 μL of 800 units/mL of proteinase K (New England Biolabs) and incubated at 45 °C for 30 min. Following the addition of 5 μL of stop solution (50 mM of EDTA, 50% glycerol, and 0.5% v/v bromophenol blue), the reaction products were analyzed in a 1% agarose gel with TAE (40 mM of Tris-acetate, pH 8.0, 2 mM of EDTA) buffer containing 5 μg/mL of chloroquine at 25 V (1 V/cm) for 18 h. Gels were washed with TAE buffer for 1 h and 50 mM of NaCl for 1 h to remove the chloroquine, and finally with deionized water for 30 min. Gels were stained for 2 h with 1 μg/mL of SYBR Gold solution (Thermo Fischer Scientific, Waltham, MA, USA). Gels were destained with deionized water for 15 min and photographed over UV light with the AlphaImager system. The amount of the relaxed DNA produced by TOP3B in each reaction was quantified using the AlphaImager software version 1.5.0 to calculate the percentage of inhibition versus the DMSO control.

The next data set concerns the target T2, human TOP1 (Homo sapiens, UniProt P11387).
T2 construct: made in house; host or cells: Saccharomyces cerevisiae strain EKY3
T2 sequence (P11387 1-765): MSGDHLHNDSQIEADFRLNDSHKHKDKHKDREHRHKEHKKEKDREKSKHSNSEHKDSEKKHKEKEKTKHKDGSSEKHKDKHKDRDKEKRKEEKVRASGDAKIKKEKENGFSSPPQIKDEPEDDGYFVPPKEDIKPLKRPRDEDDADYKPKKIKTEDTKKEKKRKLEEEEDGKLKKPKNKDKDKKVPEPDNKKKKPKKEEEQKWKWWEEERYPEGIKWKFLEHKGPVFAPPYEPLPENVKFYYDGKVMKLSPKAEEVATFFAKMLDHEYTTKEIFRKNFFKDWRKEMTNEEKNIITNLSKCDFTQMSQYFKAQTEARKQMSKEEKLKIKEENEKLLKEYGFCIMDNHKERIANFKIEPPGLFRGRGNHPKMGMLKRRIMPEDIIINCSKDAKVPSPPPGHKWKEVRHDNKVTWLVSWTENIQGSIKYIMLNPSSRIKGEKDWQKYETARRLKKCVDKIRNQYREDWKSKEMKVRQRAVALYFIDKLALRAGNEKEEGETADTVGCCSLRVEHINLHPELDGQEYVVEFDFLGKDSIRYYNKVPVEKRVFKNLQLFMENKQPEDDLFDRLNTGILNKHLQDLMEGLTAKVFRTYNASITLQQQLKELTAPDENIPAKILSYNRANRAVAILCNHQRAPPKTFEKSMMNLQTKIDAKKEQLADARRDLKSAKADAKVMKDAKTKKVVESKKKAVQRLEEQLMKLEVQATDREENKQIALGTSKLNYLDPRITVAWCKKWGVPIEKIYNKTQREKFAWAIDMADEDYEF
As to the kind of experiment: Assay of inhibition of human TOP1 relaxation activity (gel electrophoresis). Format: biochemical. As to conditions: DNA relaxation, 1 unit enzyme, supercoiled pBAD/Thio plasmid, 37 °C 30 min. As to the method: Recombinant human TOP1 was expressed from clone pYES2-TOP1 transformed into Saccharomyces cerevisiae strain EKY3 [46]. Inhibition of TOP1 relaxation activity was assayed as described in a 20 µL reaction containing 200 ng of supercoiled pBAD/Thio plasmid DNA and 1 unit of enzyme in 10 mM of Tris-HCl, with a pH of 8.0, 1 mM of EDTA, 150 mM of NaCl, 0.1 mM of spermidine, 0.1 mg/mL of BSA, and 5% glycerol. The reactions were incubated at 37 °C for 30 min before the addition of 4 µL of stop solution (6% SDS, 0.6% (wv/v)) bromophenol blue and 40% glycerol. Gel electrophoresis for the separation of the supercoiled DNA substrate from the relaxed DNA was conducted in 1% agarose gel with TAE buffer for 20 h at 25 V. The DNA was stained with ethidium bromide for an hour and then soaked in water for 5 min. Gels were photographed over UV light with the AlphaImager system. The amount of the supercoiled DNA substrate remaining in each reaction was quantified using the AlphaImager software to calculate the percentage of inhibition versus the DMSO control.

Data set [1] can be described thus: Cell viability of human dermal fibroblasts (CellTiter-Blue). As to conditions: primary human dermal fibroblasts (HdFa), 100 µM (highest concentration), 24 h exposure, relative to untreated control. It is filed as cell-based. As to the method:
Human dermal fibroblasts (HdFa; PCS-210-012™, ATCC, Manassas, VA, USA) were cultured in Dulbecco’s Modified Eagle Medium (DMEM; supplemented with GlutaMAX™ and sodium pyruvate; Gibco, Waltham, MA, USA), containing 10% fetal bovine serum (FBS; Gibco) and 1% penicillin-streptomycin (10,000 U/mL; Gibco). Cells were maintained in T75 tissue culture flasks (Thermo Scientific Nunc™, Roskilde, Denmark) under standard incubation conditions (37 °C, 5% CO2, humidified atmosphere). Upon reaching confluency, cells were harvested and seeded into black-walled, clear-bottom, 96-well plates at a density of 5000 cells/well in 100 µL of complete growth medium. Following overnight incubation, the cells reached approximately 80–90% confluence. […]
After 24 h of compound exposure, 20 µL of CellTiter-Blue® reagent (Promega, WI, USA) was added to each well. Plates were incubated for an additional 2 h at 37 °C, after which the fluorescence of the metabolized resorufin product was measured using a Synergy Multi-Mode Plate Reader (BioTek Instruments, Winooski, VT, USA) at an excitation wavelength of 560 nm and an emission wavelength of 590 nm. Cellular viability in response to the test compounds was expressed as a percentage relative to the untreated control group.(1) Cell viability (%)=Fluorescenceintensityoftreatedcells/Fluorescenceintensityofcontrolcells×[…]

Take `CC(C)C[C@H](N)C(=O)n1nc(Nc2ccccc2/C=C/C(N)=O)nc1N` [2710-34-357]: the IC50 on human TOP3B came to 34.5 µM; at human TOP1, 31.9 µM.

In the case of `Cc1cn(-c2cc(NC(=O)c3ccc(C)c(Nc4nccc(-c5cnccn5)n4)c3)cc(C(F)(F)F)c2)cn1` [Radotinib], the “Inhibition of the DNA relaxation activity of human TOP3B” value (“Inhibition … of human TOP3B” below) at human TOP3B is reported as “Inhibition was observed only for bemcentinib”.

Turning to `Cc1cn(-c2cc(NC(=O)c3ccc(C)c(Nc4nccc(-c5cccnc5)n4)c3)cc(C(F)(F)F)c2)cn1` [Nilotinib], on human TOP3B, the “Inhibition … of human TOP3B” value was “Inhibition was observed only for bemcentinib”.

With `CNC(=O)c1cc(Oc2ccc(NC(=O)Nc3cc(C(C)(C)C)nn3-c3ccc4ncccc4c3)c(F)c2)ccn1` [Rebastinib], the “Inhibition … of human TOP3B” value at human TOP3B is reported as “Inhibition was observed only for bemcentinib”.

As to `CN1CCN(C2CCN(C(=O)Nc3cc(Oc4ccc(NC(=O)C5(C(=O)Nc6ccc(F)cc6)CC5)c(F)c4)ccn3)CC2)CC1` [Golvatinib], at human TOP3B, the “Inhibition … of human TOP3B” value is reported as “Inhibition was observed only for bemcentinib”.

As to `CC(C)[C@H](N)C(=O)n1nc(Nc2ccccc2/C=C/C(N)=O)nc1N` [2710-33-343], the viability at 24 h, 100 µM in data set [1] is roughly 60%.

On to `Cc1cc(Nc2ncnc3ccc(NC4=NC(C)(C)CO4)cc23)ccc1Oc1ccn2ncnc2c1` [Tucatinib], for which the “Inhibition … of human TOP3B” value on human TOP3B is “Inhibition was observed only for bemcentinib”.

Consider `Nc1nc(Nc2ccc3c(c2)CC[C@@H](N2CCCC2)CC3)nn1-c1cc2c(nn1)-c1ccccc1CCC2` [Bemcentinib], for which, on human TOP3B, half-maximal inhibition (IC50) required 34.3 µM and the “Inhibition … of human TOP3B” value is given as “Inhibition was observed only for bemcentinib”. Further, the “Selectivity for inhibition of TOP3B versus TOP1” value on human TOP3B (comparison of IC50 values TOP3B vs TOP1) was “inhibits TOP3B with greater potency than TOP1”. At human TOP1, this molecule yielded an IC50 of 75.8 µM.
